Reference: ChEMBL document CHEMBL5050844 (2019)

What was measured:
[1] = Induction of anti-CD3/CD28 antibodies-stimulated human CD4+ T cell activation at 1.11 uM assessed fold increase in CD69 expression measured by flow cytometry analysis; assay type: functional, T cell line
[2] = Induction of anti-CD3/CD28 antibodies-stimulated human T cell activation at 1 uM assessed fold increase in IL-2 secretion measured by ELISA assay; assay type: functional, T cell line
[3] = Induction of activation of human CD56+ CD3- NK cells co-cultured with human K562 cells in 1:1 ratio and assessed as increase in TNF-alpha secretion at 0.625 uM measured by ELISA assay; assay type: functional, Natural killer cell
[4] = Induction of anti-CD3 antibodies-stimulated human T cell activation at 10 uM assessed fold increase in IFN-gamma secretion measured by ELISA assay; assay type: functional, T cell line
[5] = Induction of anti-CD3/CD28 antibodies-stimulated human CD8+ T cell activation at 10 uM assessed fold increase in cell proliferation measured by flow cytometry analysis; assay type: functional, T cell line
[6] = Induction of activation of human CD56+ CD3- NK cells co-cultured with human K562 cells in 1:1 ratio and assessed as increase in IFN-gamma secretion at 2.5 uM measured by ELISA assay; assay type: functional, Natural killer cell
[7] = Induction of anti-CD3/CD28 antibodies-stimulated human CD8+ T cell activation at 1.11 uM assessed fold increase in CD69 expression measured by flow cytometry analysis; assay type: functional, T cell line
[8] = Induction of activation of human CD56+ CD3- NK cells co-cultured with human K562 cells in 1:1 ratio and assessed as increase in IFN-gamma secretion at 10 uM measured by ELISA assay; assay type: functional, Natural killer cell
[9] = Induction of anti-CD3/CD28 antibodies-stimulated human T cell activation at 0.3 uM assessed fold increase in IL-2 secretion measured by ELISA assay; assay type: functional, T cell line
[10] = Induction of activation of human CD56+ CD3- NK cells co-cultured with human K562 cells in 1:1 ratio and assessed as increase in TNF-alpha secretion at 10 uM measured by ELISA assay; assay type: functional, Natural killer cell
[11] = Induction of anti-CD3/CD28 antibodies-stimulated human CD8+ T cell activation at 1.11 uM assessed fold increase in cell proliferation measured by flow cytometry analysis; assay type: functional, T cell line
[12] = Induction of anti-CD3 antibodies-stimulated human exhausted T cell activation assessed fold increase in IL-2 secretion measured by ELISA assay; assay type: functional, T cell line
[13] = Induction of anti-CD3 antibodies-stimulated human T cell activation at 10 uM assessed fold increase in TNF-alpha secretion measured by ELISA assay; assay type: functional, T cell line
[14] = Induction of allogenic human T cell activation at 10 uM assessed fold increase in cell proliferation; assay type: functional, T cell line
[15] = Induction of anti-CD3/CD28 antibodies-stimulated human T cell activation at 1 uM assessed fold increase in CD25 expression measured by ELISA assay; assay type: functional, T cell line
[16] = Induction of anti-CD3/CD28 antibodies-stimulated human T cell activation at 1.11 uM assessed fold increase in IFN-gamma secretion measured by ELISA assay; assay type: functional, T cell line
[17] = Induction of anti-CD3 antibodies-stimulated human CD4+ T cell activation at 1.11 uM assessed fold increase in CD69 expression measured by flow cytometry analysis; assay type: functional, T cell line
[18] = Induction of anti-CD3/CD28 antibodies-stimulated human T cell activation at 10 uM assessed fold increase in TNF-alpha secretion measured by ELISA assay; assay type: functional, T cell line
[19] = Induction of anti-CD3/CD28 antibodies-stimulated human CD4+ T cell activation at 10 uM assessed fold increase in CD69 expression measured by flow cytometry analysis; assay type: functional, T cell line
[20] = Induction of anti-CD3 antibodies-stimulated human T cell activation at 1.11 uM assessed fold increase in GM-CSF secretion measured by ELISA assay; assay type: functional, T cell line
[21] = Induction of anti-CD3 antibodies-stimulated human T cell activation at 1 uM assessed fold increase in IL-2 secretion measured by ELISA assay; assay type: functional, T cell line
[22] = Induction of anti-CD3 antibodies-stimulated human T cell activation at 10 uM assessed fold increase in GM-CSF secretion measured by ELISA assay; assay type: functional, T cell line
[23] = Induction of anti-CD3 antibodies-stimulated human T cell activation at 8 uM assessed fold increase in CD25 expression measured by ELISA assay; assay type: functional, T cell line
B cell = assay: Induction of anti-IgM-stimulated human CD20+ B cell activation at 10 to 1000 uM assessed as increase in CD69 expression measured as mean fluorescence intensity AUC by flow cytometry analysis; assay type: functional, cell-based; conditions: dose 10-1000 µM
[24] = Induction of anti-CD3 antibodies-stimulated human exhausted CD8+ T cell activation assessed fold increase in CTLA4 expression measured by flow cytometry analysis; assay type: functional, T cell line
[25] = Induction of anti-CD3 antibodies-stimulated human T cell activation at 8 uM assessed fold increase in IL-2 secretion measured by ELISA assay; assay type: functional, T cell line
[26] = Induction of anti-CD3 antibodies-stimulated human CD4+ T cell activation at 10 uM assessed fold increase in CD69 expression measured by flow cytometry analysis; assay type: functional, T cell line
[27] = Induction of anti-CD3 antibodies-stimulated human exhausted CD4+ T cell activation assessed fold increase in CTLA4 expression measured by flow cytometry analysis; assay type: functional, T cell line
[28] = Induction of anti-CD3/CD28 antibodies-stimulated human T cell activation at 0.3 uM assessed fold increase in CD25 expression measured by ELISA assay; assay type: functional, T cell line
[29] = Induction of anti-CD3 antibodies-stimulated human exhausted T cell activation assessed fold increase in GM-CSF secretion measured by ELISA assay; assay type: functional, T cell line
[30] = Induction of anti-CD3/CD28 antibodies-stimulated human T cell activation at 4 uM assessed fold increase in CD25 expression measured by ELISA assay; assay type: functional, T cell line
[31] = Induction of anti-CD3/CD28 antibodies-stimulated human T cell activation at 1.11 uM assessed fold increase in GM-CSF secretion measured by ELISA assay; assay type: functional, T cell line
[32] = Induction of anti-CD3/CD28 antibodies-stimulated human anergic T cell activation at 10 uM assessed fold increase in IFN-gamma secretion measured by ELISA assay; assay type: functional, T cell line
[33] = Induction of activation of human CD56+ CD3- NK cells co-cultured with human K562 cells in 1:1 ratio and assessed as increase in IFN-gamma secretion at 0.625 uM measured by ELISA assay; assay type: functional, Natural killer cell
[34] = Induction of anti-CD3/CD28 antibodies-stimulated human anergic T cell activation at 0.37 uM assessed fold increase in IFN-gamma secretion measured by ELISA assay; assay type: functional, T cell line
[35] = Induction of anti-CD3 antibodies-stimulated human T cell activation at 1 uM assessed fold increase in CD25 expression measured by ELISA assay; assay type: functional, T cell line
[36] = Induction of anti-CD3 antibodies-stimulated human CD8+ T cell activation at 1.11 uM assessed fold increase in cell proliferation measured by flow cytometry analysis; assay type: functional, T cell line
[37] = Induction of anti-CD3 antibodies-stimulated human CD8+ T cell activation at 10 uM assessed fold increase in CD69 expression measured by flow cytometry analysis; assay type: functional, T cell line

SMILES: C[C@H](Cc1nncn1C)c1cccc(N2Cc3c(cc(CN4CC[C@](C)(O)C4)cc3C(F)(F)F)C2=O)c1
- fold change (FC) [1]: 1.401
- fold change (FC) [2]: 5
- fold change (FC) [3]: 1.01
- fold change (FC) [4]: <=2
- fold change (FC) [5]: >4
- fold change (FC) [6]: 2.01
- fold change (FC) [7]: 1.201
- fold change (FC) [8]: >=5
- fold change (FC) [9]: 2.51
- fold change (FC) [10]: 2.01
- fold change (FC) [11]: 3.01
- fold change (FC) [12]: 2.51
- fold change (FC) [13]: 2.01
- fold change (FC) [14]: 2.01
- fold change (FC) [15]: 1.31
- fold change (FC) [16]: 3.01
- fold change (FC) [17]: >1.601
- fold change (FC) [18]: 2.01
- fold change (FC) [19]: 1.401
- fold change (FC) [20]: 2.01
- fold change (FC) [21]: 0.101
- fold change (FC) [22]: >4
- fold change (FC) [23]: >=1.001
- AUC (B cell): 0.5
- fold change (FC) [24]: >1.61
- fold change (FC) [25]: >=0.201
- fold change (FC) [26]: >1.601
- fold change (FC) [27]: 1.41
- fold change (FC) [28]: 1.01
- fold change (FC) [29]: >1.61
- fold change (FC) [30]: 1.31
- fold change (FC) [31]: 2.01
- fold change (FC) [32]: >4.01
- fold change (FC) [33]: 2.01
- fold change (FC) [34]: <=2.5
- fold change (FC) [35]: >=1.001
- fold change (FC) [36]: >4
- fold change (FC) [37]: 1.401

SMILES: C[C@H](Cc1nncn1C)c1cccc(N2Cc3c(cc(CN4CC(C)(O)C4)cc3C(F)(F)F)C2=O)c1
- fold change (FC) [1]: 1.401
- fold change (FC) [2]: >=7.5
- fold change (FC) [3]: 1.01
- fold change (FC) [4]: <=2
- fold change (FC) [5]: >4
- fold change (FC) [6]: 2.01
- fold change (FC) [7]: 1.201
- fold change (FC) [8]: >=5
- fold change (FC) [9]: 2.51
- fold change (FC) [10]: 2.01
- fold change (FC) [11]: 3.01
- fold change (FC) [12]: 2.51
- fold change (FC) [13]: 1.51
- fold change (FC) [14]: 2.01
- fold change (FC) [15]: 1.31
- fold change (FC) [16]: 2.01
- fold change (FC) [17]: >1.601
- fold change (FC) [18]: 2.01
- fold change (FC) [19]: 1.401
- fold change (FC) [20]: 2.01
- fold change (FC) [21]: 0.151
- fold change (FC) [22]: 2.01
- fold change (FC) [23]: >=1.001
- AUC (B cell): 0.5
- fold change (FC) [24]: >1.61
- fold change (FC) [25]: >=0.201
- fold change (FC) [26]: >1.601
- fold change (FC) [27]: >1.61
- fold change (FC) [28]: 1.01
- fold change (FC) [29]: 1.41
- fold change (FC) [30]: 1.31
- fold change (FC) [31]: 2.01
- fold change (FC) [32]: >4.01
- fold change (FC) [33]: 2.01
- fold change (FC) [34]: <=2.5
- fold change (FC) [35]: >=1.001
- fold change (FC) [36]: >4
- fold change (FC) [37]: 1.401

SMILES: Cn1cnnc1C(F)(F)[C@](C)(F)c1cccc(N2Cc3c(cc(CN4CC[C@@H](C#N)C4)cc3C(F)(F)F)C2=O)c1
- fold change (FC) [1]: 1.201
- fold change (FC) [2]: >=7.5
- fold change (FC) [3]: 1.01
- fold change (FC) [4]: 3.01
- fold change (FC) [5]: >4
- fold change (FC) [6]: >=5
- fold change (FC) [7]: 1.201
- fold change (FC) [8]: >=5
- fold change (FC) [9]: 5
- fold change (FC) [10]: >=5
- fold change (FC) [11]: 3.01
- fold change (FC) [12]: <=2.5
- fold change (FC) [13]: 2.01
- fold change (FC) [14]: <=2
- fold change (FC) [15]: 1.31
- fold change (FC) [16]: >4
- fold change (FC) [17]: 1.401
- fold change (FC) [18]: 2.01
- fold change (FC) [19]: 1.401
- fold change (FC) [20]: 1.51
- fold change (FC) [21]: 0.151
- fold change (FC) [22]: 2.01
- fold change (FC) [23]: >=1.001
- AUC (B cell): 1.01
- fold change (FC) [24]: >1.61
- fold change (FC) [25]: >=0.201
- fold change (FC) [26]: >1.601
- fold change (FC) [27]: >1.61
- fold change (FC) [28]: 1.01
- fold change (FC) [29]: >1.61
- fold change (FC) [30]: 1.31
- fold change (FC) [31]: 2.01
- fold change (FC) [32]: >4.01
- fold change (FC) [33]: 2.01
- fold change (FC) [34]: <=2.5
- fold change (FC) [35]: 0.801
- fold change (FC) [36]: >4
- fold change (FC) [37]: 1.401

SMILES: C[C@@H](c1cc2c(c(C(F)(F)F)c1)CN(c1cccc(C3(Cc4nncn4C)COC3)c1)C2=O)N1CC[C@H](F)C1
- fold change (FC) [1]: 1.401
- fold change (FC) [2]: >=7.5
- fold change (FC) [3]: 2.01
- fold change (FC) [4]: >4
- fold change (FC) [5]: >4
- fold change (FC) [6]: 2.01
- fold change (FC) [7]: 1.201
- fold change (FC) [8]: >=5
- fold change (FC) [9]: >=7.5
- fold change (FC) [10]: 2.01
- fold change (FC) [11]: >4
- fold change (FC) [12]: <=2.5
- fold change (FC) [13]: 2.01
- fold change (FC) [14]: >3
- fold change (FC) [15]: 1.51
- fold change (FC) [16]: >4
- fold change (FC) [17]: >1.601
- fold change (FC) [18]: >4
- fold change (FC) [19]: 1.401
- fold change (FC) [20]: >4
- fold change (FC) [21]: >=0.201
- fold change (FC) [22]: >4
- fold change (FC) [23]: >=1.001
- AUC (B cell): > 1.51
- fold change (FC) [24]: <=1.4
- fold change (FC) [25]: >=0.201
- fold change (FC) [26]: >1.601
- fold change (FC) [27]: <=1.4
- fold change (FC) [28]: 1.31
- fold change (FC) [29]: 1.41
- fold change (FC) [30]: 1.51
- fold change (FC) [31]: >4
- fold change (FC) [32]: >4.01
- fold change (FC) [33]: 2.01
- fold change (FC) [34]: <=2.5
- fold change (FC) [35]: >=1.001
- fold change (FC) [36]: >4
- fold change (FC) [37]: 1.401
